Assay results: US20220144812A1, “QUINOLINE DERIVATIVES AND THEIR USE FOR THE TREATMENT OF CANCER” (Epizyme, Inc., priority 2019, published 2022)

What was measured:
CREBBP (1084-1701) = target: T1, CREBBP (1084-1701) (Homo sapiens, UniProt Q92793); assay: Biochemical assay for CREBBP (1084-1701), SAMDI; details: SAMDI, read-out: CREBBP Biochemistry IC50
T1 construct: measured in the following biochemical assay using CREBBP (1084-1701); purchased
How it was run: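 Acetyltransferase activity measured by SAMDI mass spectrometry after capture on biochip. Enzyme sat with compound 30 min at RT before acetyl-CoA and biotinylated H3 11-25 (K14R, K23R) peptide were added for 30 min at RT. Formic acid quench, bicarbonate neutralisation; IC50 values reported.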

[1] = tested on: H3K18Ac in HB-CLS-2 cells; assay: H3K18AC in-cell western (ICW) assay; assay type: cell-based; details: H3K18Ac in-cell western; read-out: CREBBP ICW IC50
How it was run: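 In-cell western: after methanol fixation, blocking, overnight 4° C anti-H3K18Ac staining, then 800CW secondary plus DRAQ5 for DNA content, integrated intensities were scanned at 800 and 700 nm. Before this, compound exposure lasted 2 hr at 37° C in HB-CLS-2 cells plated 16–24 hours earlier. Values expressed as IC50 (μM).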

EP300 (P300(1048-1664)) = target: T2, EP300 (P300(1048-1664)) (Homo sapiens, UniProt Q09472); assay: Biochemical assay for EP300, SAMDI; details: EP300, SAMDI; read-out: EP300 Biochemistry IC50
T2 construct: P300(1048-1664)
T2 sequence (Q09472 1048-1664): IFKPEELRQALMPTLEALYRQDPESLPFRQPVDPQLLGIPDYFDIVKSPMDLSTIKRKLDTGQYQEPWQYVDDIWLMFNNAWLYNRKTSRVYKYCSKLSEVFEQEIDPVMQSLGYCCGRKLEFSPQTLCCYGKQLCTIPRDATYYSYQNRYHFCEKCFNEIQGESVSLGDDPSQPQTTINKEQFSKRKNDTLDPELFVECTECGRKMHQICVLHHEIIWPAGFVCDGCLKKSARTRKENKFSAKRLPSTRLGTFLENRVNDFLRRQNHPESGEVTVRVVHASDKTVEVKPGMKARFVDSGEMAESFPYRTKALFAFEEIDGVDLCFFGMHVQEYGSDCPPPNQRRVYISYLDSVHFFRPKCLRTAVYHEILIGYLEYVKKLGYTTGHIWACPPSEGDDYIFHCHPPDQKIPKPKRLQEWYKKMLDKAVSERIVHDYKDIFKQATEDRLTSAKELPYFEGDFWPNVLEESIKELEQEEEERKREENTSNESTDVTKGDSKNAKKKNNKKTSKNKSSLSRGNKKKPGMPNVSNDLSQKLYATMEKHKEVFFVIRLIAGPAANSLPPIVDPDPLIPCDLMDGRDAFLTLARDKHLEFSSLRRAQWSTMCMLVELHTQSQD
Source text: The following example describes materials and methods relating to a biochemical assay for EP300. IC50 values (micromolar (μM)) are summarized in Table 1, Table 2, and Table 3 under the column labeled: “EP300 Biochemistry IC50 (micromolar).”

647V cells = assay: High throughput proliferation (HTP) assay; assay type: cell-based; details: Homo sapiens, 647-V, high throughput proliferation; read-out: CREBBP HTP IC50
How it was run: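 Proliferation IC50 (micromolar) derived from a 7-day CellTiter-Glo viable-cell readout in 647V cells exposed, in triplicate, to rising compound concentrations; cells grown in DMEM plus 15% heat-inactivated FBS at 37° C under 5% CO2.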

T1 sequence (Q92793 1084-1701): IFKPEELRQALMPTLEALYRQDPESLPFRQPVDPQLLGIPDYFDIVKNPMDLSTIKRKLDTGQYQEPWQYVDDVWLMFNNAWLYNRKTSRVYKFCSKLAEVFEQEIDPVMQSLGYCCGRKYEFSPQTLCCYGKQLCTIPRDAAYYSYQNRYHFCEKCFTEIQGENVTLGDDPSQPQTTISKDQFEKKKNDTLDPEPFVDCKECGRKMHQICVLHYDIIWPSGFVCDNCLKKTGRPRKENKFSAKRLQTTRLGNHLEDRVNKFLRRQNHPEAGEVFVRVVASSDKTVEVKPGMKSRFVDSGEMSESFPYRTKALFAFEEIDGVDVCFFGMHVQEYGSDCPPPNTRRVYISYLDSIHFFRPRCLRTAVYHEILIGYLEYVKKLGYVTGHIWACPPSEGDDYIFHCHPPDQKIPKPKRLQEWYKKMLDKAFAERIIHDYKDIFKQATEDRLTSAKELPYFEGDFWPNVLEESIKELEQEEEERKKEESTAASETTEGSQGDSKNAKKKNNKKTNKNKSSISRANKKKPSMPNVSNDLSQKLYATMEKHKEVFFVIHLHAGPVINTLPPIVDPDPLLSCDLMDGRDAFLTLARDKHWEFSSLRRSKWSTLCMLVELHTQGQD

IC50 (CREBBP (1084-1701))	IC50 [1]	IC50 (EP300 (P300(1048-1664)))	SMILES	IC50 (647V cells)
25.3 nM	371 nM	28.5 nM	CCc1ncc(CN(C)C(=O)c2nc(-c3cc(N)c4cn[nH]c4c3)nc3ccc(COC)cc23)n1C [Compound 500]	409 nM
148 nM	3890 nM	36.8 nM	CCc1ncc(CN(C)C(=O)c2nc(-c3cc(C)cc(NC4CCNC4)c3)nc3ccc(COC)cc23)n1C (stereo not shown) [Compound 501]	1150 nM
10600 nM	2530 nM	4850 nM	CCn1ncc(CN(C)C(=O)c2cc(-c3ccc(N(C)C)nn3)nc3ccc(Cl)cc23)c1C [Compound 502]	9010 nM
9850 nM	17100 nM	9280 nM	CCn1ncc(CN(C)C(=O)c2nc(-c3ccc(OCCNC)c(Cl)c3)nc3ccc(CS(C)(=O)=O)cc23)c1C [Compound 503]	7610 nM
5780 nM	3990 nM	2000 nM	CCn1ncc(CN(C)C(=O)c2cc(-c3ccc(NCCNC)nn3)nc3ccc(Cl)cc23)c1C [Compound 504]	3730 nM
4520 nM	2340 nM	3280 nM	CCn1ncc(CN(C)C(=O)c2cc(-c3ccc(N(C)CCN)nn3)nc3ccc(Cl)cc23)c1C [Compound 505]	5960 nM
64.8 nM	185 nM	7.6 nM	CCn1ncc(CN(C)C(=O)c2cc(-c3cc4n[nH]cc4cn3)nc3ccc(COC)cc23)c1C [Compound 506]	567 nM
556 nM	1600 nM	1360 nM	CCn1ncc(CN(C)C(=O)c2nc(-c3cc4c(N)nn(CCNC)c4cc3C)nc3ccc(Cl)cc23)c1C [Compound 507]	1010 nM
46.3 nM	174 nM	22.4 nM	CCn1ncc(CN(C)C(=O)c2nc(-c3cc4c(N)[nH]nc4cc3C)nc3ccc(COC)cc23)c1C [Compound 508]	212 nM
62.9 nM	225 nM	9.3 nM	CCc1ncc(CN(C)C(=O)c2cc(-c3cc4n[nH]cc4cn3)nc3ccc(COC)cc23)n1C [Compound 510]	465 nM
15.2 nM	104 nM	4 nM	CCc1ncc(CN(C)C(=O)c2cc(-c3cc(C(=O)NC)n(C)n3)nc3ccc(Cl)cc23)n1C [Compound 512]	110 nM
68.4 nM	470 nM	35 nM	CCc1ncc(CN(C)C(=O)c2cc(-c3ccc(NCCNC)c(C)n3)nc3ccc(COC)cc23)n1C [Compound 513]	203 nM
8.96 nM	470 nM	2.7 nM	CCc1ncc(CN(C)C(=O)c2nc(-c3cc(C)c4[nH]c(=O)[nH]c4c3)nc3ccc(Cl)cc23)n1C [Compound 514]	363 nM
70.5 nM	166 nM	49.4 nM	CCn1ncc(CN(C)C(=O)c2nc(-c3cc4c(N)n(CCNC)nc4cc3C)nc3ccc(Cl)cc23)c1C [Compound 515]	78.5 nM
58.4 nM	194 nM	46.5 nM	CCn1ncc(CN(C)C(=O)c2nc(-c3cc(C)nc(NCCNC)c3)nc3ccc(COC)cc23)c1C [Compound 516]	125 nM
36.1 nM	159 nM	12.1 nM	CCc1ncc(CN(C)C(=O)c2cc(-c3ccc(NC4CCOCC4)c(C)n3)nc3ccc(Cl)cc23)n1C [Compound 517]	107 nM
31.4 nM	253 nM	107 nM	CCn1ncc(CN(C)C(=O)c2cc(-c3cc4c(N)n[nH]c4c(C)n3)nc3ccc(Cl)cc23)c1C [Compound 519]	326 nM
80.7 nM	334 nM	23.8 nM	CCn1ncc(CN(C)C(=O)c2cc(-c3cc(C(=O)NC)n(C)n3)nc3ccc(COC)cc23)c1C [Compound 520]	650 nM
10 nM	80.4 nM	7.1 nM	CCn1ncc(CN(C)C(=O)c2cc(-c3ccc(NCCO)c(C)n3)nc3ccc(Cl)cc23)c1C [Compound 521]	110 nM

IC50 (CREBBP (1084-1701))	IC50 [1]	IC50 (EP300 (P300(1048-1664)))	SMILES	IC50 (647V cells)
26000 nM	16600 nM	16600 nM	CCn1ncc(CN(C)C(=O)c2nc(-c3nc4c[nH]nc4cc3C)nc3ccc(Cl)cc23)c1C [Compound 522]	8060 nM
6.22 nM	74.1 nM	2.7 nM	CCc1ncc(CN(C)C(=O)c2nc(-c3cc(Cl)c4[nH]cnc4c3)nc3ccc(COC)cc23)n1C [Compound 523]	34.7 nM
16 nM	81.4 nM	4 nM	CCn1ncc(CN(C)C(=O)c2nc(-c3cc(C)c4c(N)n[nH]c4c3)nc3ccc(COC)cc23)c1C [Compound 524]	163 nM
54 nM	260 nM	142 nM	CCn1ncc(CN(C)C(=O)c2cc(-c3cnc(NCCNC)c(C)n3)nc3ccc(Cl)cc23)c1C [Compound 525]	313 nM
6.42 nM	46.5 nM	2 nM	CCc1ncc(CN(C)C(=O)c2nc(-c3cc(C)c4c(N)[nH]nc4c3)nc3ccc(Cl)cc23)n1C [Compound 526]	72 nM
67.2 nM	798 nM	21.2 nM	CCc1ncc(CN(C)C(=O)c2nc(-c3cc(C)nc(NCCNC)c3)nc3ccc(COC)cc23)n1C [Compound 527]	295 nM
1060 nM	603 nM	1050 nM	CCn1ncc(CN(C)C(=O)c2nc(-c3cc4[nH]ncc4nc3C)nc3ccc(Cl)cc23)c1C [Compound 528]	1110 nM
20.7 nM	137 nM	10.4 nM	CCn1ncc(CN(C)C(=O)c2cc(-c3ccc(NCCNS(C)(=O)=O)c(C)n3)nc3ccc(Cl)cc23)c1C [Compound 529]	238 nM
50.3 nM	154 nM	12.5 nM	CCn1ncc(CN(C)C(=O)c2cc(-c3cc4[nH]cnc4c(C)n3)nc3ccc(COC)cc23)c1C [Compound 530]	248 nM
29.9 nM	350 nM	6.3 nM	CCn1ncc(CN(C)C(=O)c2cc(-c3cc(N[C@@H]4CCNC4)cc(C)n3)nc3ccc(Cl)cc23)c1C [Compound 531]	88.9 nM
17.3 nM	158 nM	15.4 nM	CCn1ncc(CN(C)C(=O)c2nc(-c3ccc4n[nH]c(N)c4c3)nc3ccc(Cl)cc23)c1C [Compound 532]	288 nM
183 nM	159 nM	32.4 nM	CCn1ncc(C(C)N(C)C(=O)c2cc(-c3ccc(NCCNC)c(C)n3)nc3ccc(Cl)cc23)c1C (stereo not shown) [Compound 533]	79.6 nM
32.4 nM	171 nM	9.1 nM	CCn1ncc(CN(C)C(=O)c2cc(-c3ccc(NCC(F)(F)CNC)c(C)n3)nc3ccc(Cl)cc23)c1C [Compound 534]	228 nM
12 nM	58.3 nM	4.1 nM	CCn1ncc(CN(C)C(=O)c2nc(-c3cc4c(N)n[nH]c4cc3C)nc3ccc(Br)cc23)c1C [Compound 535]	58.1 nM
88.7 nM	1060 nM	88.6 nM	CCn1ncc(CN(C)C(=O)c2cc(-c3ccc(NC4CNCC4(F)F)c(C)n3)nc3ccc(Cl)cc23)c1C (stereo not shown) [Compound 538]	1730 nM
30.4 nM	714 nM	26.2 nM	CCn1ncc(CN(C)C(=O)c2nc(-c3cc(C)cc(NC4CNC(=O)C4)c3)nc3ccc(Cl)cc23)c1C (stereo not shown) [Compound 539]	1340 nM
20.5 nM	82.8 nM	6.1 nM	CNCCNc1ccc(-c2cc(C(=O)N(C)Cc3cnc(C4CC4)n3C)c3cc(Cl)ccc3n2)nc1C [Compound 540]	23.3 nM
11.2 nM	104 nM	2.7 nM	CCc1ncc(CN(C)C(=O)c2cc(-c3cc(-c4ncc[nH]4)n(C)n3)nc3ccc(Cl)cc23)n1C [Compound 541]	85.4 nM
